According to patent US10561736B1, “Apoptosis inhibitor formulations for prevention of hearing loss” (Spiral Therapeutics, Inc., priority 2019, dated 2020):
≈ marks a conversion by molar mass, not a printed value. Entries after “also recorded” stand apart in the source; their conditions may differ. Read-outs that look alike come from different tables or passages of the source.

Key:
[1] = physical stability of drug product vials; format: physicochemical; conditions: for original drug concentration remaining in solution: filtered through 0.2 micron filters
Method: Vials of the drug product were stored at either room temperature or 4° C. for a period greater than three months.

HEI-OC1 cells [2] = test: HEI-OC1 cell viability with CisPt; format: cell-based; conditions: cellular model of CisPt-induced apoptosis
Method: To identify off-target activities of LPT99, its selectivity against a panel of receptors (44 G-protein-coupled receptors [GPCR] and 4 non-GPCR), 4 ion channels, and 3 transporters were analyzed. The cell line, HEI-OC1 (house ear institute organ of Corti 1), which expresses several characteristic markers of the organ of Corti sensory cells (Kalinec, et al., Audiol. Neurootol. 2003, 8(4), 177-89), was used to evaluate the efficacy of LPT99 in preventing apoptosis due to […]. Cells were pre-incubated with LPT99, followed by […] for 24 hours.
The effect of LPT99 on proliferation of non-apoptotic cells was studied. A549 cells were cultured in the presence of LPT99 for up to 6 days; the cell number was monitored by flow cytometry, and doubling time was calculated.

guinea pigs = test: dermal sensitization main study (Buehler test); format: in vivo, guinea pig; conditions: topical 797 μM
Method: A GLP-compliant dermal sensitization study was conducted with LPT99 in guinea pigs.
The test article, LPT99, was in a neutral-pH, buffered, isotonic solution containing a thermoreversible compound.
The main study consisted of 2 groups of 20 or 10 guinea pigs. […] Group 2 was 5 male and 5 female animals that were not dosed with LPT99 (Group 2) during the induction phase and served as naïve controls; Group 2 was challenged with LPT99 on Day 28. LPT99 was topically administered to the skin in the shaved scapula area in a volume of 50 μL on Study Days 0, 7, and 14 (induction doses), and on Day 28 (challenge dose). These observations and measurements were performed: Clinical observations (daily), Body weights (weekly), Draize scoring (24 and 48 hours after bandage removal on Days 29 and 30), Primary Dermal Irritation Index (PDII) scoring of extent of irritation according to the scale in. The PDII (post-challenge) was calculated for the test article or vehicle by dividing the sum of the Total Irritation Score by the number of observations (e.g., 3 days×6 animals=18 (number of observations).

[3] = in vitro release assay from P407 hydrogel through dialysis membrane into artificial perilymph; format: physicochemical; conditions: 3500 Da dialysis membrane, 37° C.
Method: The in vitro release assay was performed using cellulose dialysis membranes of 3500 Da (OrDial D35-MWCO 3500, Orange Scientific) to simulate the round window membrane, located between the middle ear and the inner ear, as it is the first barrier for the drug to reach the inner ear where it will exert its pharmacological action. (See FIG. 1) Artificial perilymph (NaCl 137 mM, KCl 5 mM, CaCl2 2 mM, MgCl2 1 mM and NaHCO3 1 mM) was used to simulate the environment inside the inner ear, since this is the liquid that interact with the drug after crossing the round window. The assay was performed at 37° C., continuing with the simulation of ear conditions.
To prepare the release assay, ten (10) mL of the LPT99 loaded hydrogel was placed inside a 3500 Da dialysis membrane, the membrane with the hydrogel was introduced into a 100 ml borosilicate glass lab bottle and 30 ml of artificial perilymph was added. All samples were kept under magnetic stirring at 37° C. […]
Samples were taken at different time points (1 h, 3 h, 6 h, 1 day, 2 days, 3 days, 6 days, 7 days, 8 days, 9 days, 10 days, 13 days, 14 days and 15 days) at which time 5 mL were withdrawn with a graduated glass pipette and replaced with equivalent volume of artificial perilymph. The collected samples were analyzed to determine the amount of drug released from the hydrogel at each time point. […]

caspase 3 = conditions: cellular model of CisPt-induced apoptosis; IEB Symposium abstracts 2016; cited from earlier work
[4] = tested on: Chinese hamster ovary (CHO) cell; test: in vitro CHO cell aberration assay; format: cell-based; conditions: presence or absence of S9 metabolism
[5] = metabolic stability in microsomal and S9 hepatic fractions; format: in vitro ADME; conditions: after 1 hour
Text: The metabolic profile and stability of LPT99 was characterized in human, dog, rabbit, rat, and mouse microsomal and S9 fractions, and in human cytosolic fractions.

solubility = format: physicochemical
[6] = tested on: CisPt-induced hearing loss; test: model of CisPt-induced hearing loss in rats; format: in vivo; conditions: rat
Method: A model of CisPt-induced hearing loss in rats was evaluated to test the in vivo efficacy of LPT99. Ototoxicity was induced by intraperitoneal (IP) slow infusion of CisPt at doses that compared with those used in human preventions (eg, 10 mg/kg). LPT99 was administered IT 30 minutes before CisPt was given.
The protective effect of LPT99 was evaluated 3 days after CisPt administration by functional measures, such as auditory brainstem response (ABR) threshold shift, DPOAE, and expression of biomarkers of apoptosis in cochlea and cytocochleograms.

HEI-OC1 cells [7] = conditions: cellular model of CisPt-induced apoptosis; IEB Symposium abstracts 2016; cited from earlier work
[8] = cochlear distribution after IT administration (absorption); format: in vivo, rat; conditions: LPT99 formulation in hydrogel, detection limit 2 ng/mL=3.2 nM

## COc1ccc2[nH]cc(CCNC(=O)CC3C(=O)N(CCc4ccc(Cl)cc4Cl)CC(=O)N3CCc3cccs3)c2c1 (centres unmarked) [LPT99, 2-(4-(2,4-dichlorophenethyl)-3,6-dioxo-1-(2-(thiophen-2-yl)ethyl)piperazin-2-yl)-N-(2-(5-methoxy-1H-indol-3-yl)ethyl)acetamide]
[1]; vials stored at 4 C
  time to precipitation: approximately 2 months
  original drug concentration remaining in solution: less than 10%
[1]; vials stored at room temperature
  original drug concentration remaining in solution: 100%
[1]; vials stored at room temperature, greater than three months
  appearance of solution: remained clear with no evidence of drug precipitation
HEI-OC1 cells [2]
  cell viability with CisPt: improved cell viability; also recorded: increased cellular viability
Guinea pigs
  Irritant Category: nonirritant (0)
  mortality, clinical observations, body weights, or Draize scores: No test-article-related changes
Guinea pigs; 24 or 48 hours
  Draize scores after the challenge dose: No Draize scores were >0
Guinea pigs; post-challenge
  PDII score: 0
[3]
  LPT99 release from hydrogel over time: released in effective amounts for at least one week
Caspase 3
  caspase-3 activation: reduced caspase-3 activation
[4]
  structural aberrations in cultured mammalian cells: did not induce structural aberrations
[5]; dog microsomal and S9 hepatic fractions
  metabolized: > 90%
[5]; human microsomal and S9 hepatic fractions
  metabolized: > 90%
[5]; mouse microsomal and S9 hepatic fractions
  metabolized: > 90%
[5]; rabbit microsomal and S9 hepatic fractions
  metabolized: > 90%
[5]; rat microsomal and S9 hepatic fractions
  metabolized: > 90%
solubility; 14.7 wt/wt % vehicle vs aqueous
  increase in drug solubility: 332 fold
solubility; aqueous (not further specified), read-out: aqueous solubility
  solubility: 2.4 µM (≈ 1.51 µg/mL)
solubility; aqueous with cosolvent or surfactant or cyclodextrin, 14.7 wt/wt %, read-out: solubility in 14.7 wt/wt % vehicle
  solubility: ≥ 797 µM
[6]; IT LPT99-CD, 3 days after administration, especially 20, 28, or 40 kHz
  ABR threshold shift induced by CisPt: attenuated the ABR threshold shift
[6]; IT LPT99 in hydrogel plus CisPt
  auditory threshold shifts vs CisPt control group: significantly lower auditory threshold shifts
[6]; IT LPT99 solution (hydrogel), 63 μg/mL [100 μM] and 300 μg/mL [478 μM]
  protection against CisPt-induced hearing loss: protected against CisPt-induced hearing loss; also recorded: protective effects against CisPt-induced hearing loss
HEI-OC1 cells [7]
  release of Cytc from mitochondria: decreased release of Cytc from mitochondria
[8]
  LPT99 in plasma after IT administration: no LPT99 has been found in plasma; also recorded: not detected systemically
[8]; listed as LTP99
  LPT99 in plasma after IT administration: not detectable in plasma
